According to patent publication US20260007684A1, “AMIDE DERIVATIVES FOR INHIBITING NLRP3 AND USES THEREOF” (Ventus Therapeutics U.S., Inc., priority 2023, published 2026):
Where two headings read alike, the source gives them in different places.

Biological target: human NLRP3 (Homo sapiens (Human), UniProt Q96P20)
Assay: Scintillation Proximity (SPA) NLRP3 Assay: displacement of 3H-MCC950
Format: binding
[1] = displacement of 3H-MCC950, read-out: SPA IC50

Chain of human NLRP3 (Q96P20 whole entry): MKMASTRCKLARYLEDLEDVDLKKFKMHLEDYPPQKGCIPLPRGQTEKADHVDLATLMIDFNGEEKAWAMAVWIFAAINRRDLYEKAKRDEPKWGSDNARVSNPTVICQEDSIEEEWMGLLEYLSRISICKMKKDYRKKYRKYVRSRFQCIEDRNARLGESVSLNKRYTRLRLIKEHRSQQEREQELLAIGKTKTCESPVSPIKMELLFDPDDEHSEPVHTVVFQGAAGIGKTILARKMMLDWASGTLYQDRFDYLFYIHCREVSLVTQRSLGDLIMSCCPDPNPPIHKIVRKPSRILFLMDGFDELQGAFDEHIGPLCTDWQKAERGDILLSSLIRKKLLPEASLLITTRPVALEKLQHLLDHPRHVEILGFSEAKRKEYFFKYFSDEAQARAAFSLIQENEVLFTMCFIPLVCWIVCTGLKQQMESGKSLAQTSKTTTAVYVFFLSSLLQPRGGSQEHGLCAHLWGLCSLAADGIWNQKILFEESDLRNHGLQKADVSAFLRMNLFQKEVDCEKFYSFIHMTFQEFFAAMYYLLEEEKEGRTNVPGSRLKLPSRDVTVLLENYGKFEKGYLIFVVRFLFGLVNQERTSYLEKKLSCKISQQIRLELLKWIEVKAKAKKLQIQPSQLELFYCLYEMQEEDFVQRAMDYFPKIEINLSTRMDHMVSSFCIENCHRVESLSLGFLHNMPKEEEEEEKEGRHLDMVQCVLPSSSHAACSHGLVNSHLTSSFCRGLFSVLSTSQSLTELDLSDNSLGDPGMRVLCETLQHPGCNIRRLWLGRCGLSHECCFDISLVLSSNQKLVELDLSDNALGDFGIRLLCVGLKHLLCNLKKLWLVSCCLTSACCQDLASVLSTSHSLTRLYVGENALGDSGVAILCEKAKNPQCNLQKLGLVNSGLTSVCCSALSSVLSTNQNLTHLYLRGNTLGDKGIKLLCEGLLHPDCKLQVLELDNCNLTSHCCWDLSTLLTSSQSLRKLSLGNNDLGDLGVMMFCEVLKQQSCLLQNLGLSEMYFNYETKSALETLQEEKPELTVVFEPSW

Row | Compound | IC50 [1] | IC50 (SPA IC50, displacement of 3H-MCC950)
1 | C[C@H]1CCN(c2nnn[nH]2)C[C@H](NC(=O)C2(c3ccc(OC(F)(F)F)cc3F)CC2)C1 (single isomer, unassigned) [64C*] | 50 to 100 µM | –
2 | C[C@H]1CCN(c2nnn[nH]2)C[C@@H](NC(=O)C2(c3ccc(OC(F)(F)F)cc3F)CC2)C1 (single isomer, unassigned) [64D*] | 1 to 10 µM | –
3 | C[C@@H]1CCN(c2nnn[nH]2)C[C@@H](NC(=O)C2(c3ccc(Cl)c(F)c3)CC2)C1 (single isomer, unassigned) [65B*] | 10 to 50 µM | –
4 | C[C@H]1CCN(c2nnn[nH]2)C[C@H](NC(=O)C2(c3ccc(Cl)c(F)c3)CC2)C1 (single isomer, unassigned) [65C*] | 10 to 50 µM | –
5 | C[C@@H]1CCN(c2nnn[nH]2)C[C@@H](NC(=O)C2(c3ccc(C(F)(F)F)c(F)c3)CC2)C1 (single isomer, unassigned) [66B*] | 1 to 10 µM | –
6 | C[C@H]1CCN(c2nnn[nH]2)C[C@H](NC(=O)C2(c3ccc(C(F)(F)F)c(F)c3)CC2)C1 (single isomer, unassigned) [66C*] | > 100 µM | –
7 | C[C@H]1CCN(c2nnn[nH]2)C[C@@H](NC(=O)C2(c3ccc(C(F)(F)F)c(F)c3)CC2)C1 (single isomer, unassigned) [66D*] | 10 to 50 µM | –
8 | Cc1ccc(C2(C(=O)N[C@H]3C[C@H](C)CCN(c4nnn[nH]4)C3)CC2)c(O)c1 (single isomer, unassigned) [67B*] | < 1 µM | –
9 | Cc1ccc(C2(C(=O)N[C@@H]3C[C@@H](C)CCN(c4nnn[nH]4)C3)CC2)c(O)c1 (single isomer, unassigned) [67C*] | 10 to 50 µM | –
10 | Cc1ccc(C2(C(=O)N[C@H]3C[C@@H](C)CCN(c4nnn[nH]4)C3)CC2)c(O)c1 (single isomer, unassigned) [67D*] | 1 to 10 µM | –
11 | C[C@@H]1CCN(c2nnn[nH]2)C[C@@H](NC(=O)C2(c3ccc(C(F)(F)F)cc3F)CC2)C1 (single isomer, unassigned) [68B*] | 1 to 10 µM | –
12 | C[C@H]1CCN(c2nnn[nH]2)C[C@H](NC(=O)C2(c3ccc(C(F)(F)F)cc3F)CC2)C1 (single isomer, unassigned) [68C*] | > 100 µM | –
13 | C[C@H]1CCN(c2nnn[nH]2)C[C@@H](NC(=O)C2(c3ccc(C(F)(F)F)cc3F)CC2)C1 (single isomer, unassigned) [68D*] | 1 to 10 µM | –
14 | C[C@@H]1CCN(c2nnn[nH]2)C[C@@H](NC(=O)C2(c3ccc(SC(F)(F)F)cc3)CC2)C1 (single isomer, unassigned) [69B*] | 10 to 50 µM | –
15 | C[C@H]1CCN(c2nnn[nH]2)C[C@H](NC(=O)C2(c3ccc(SC(F)(F)F)cc3)CC2)C1 (single isomer, unassigned) [69C*] | > 100 µM | –
16 | C[C@H]1CCN(c2nnn[nH]2)C[C@@H](NC(=O)C2(c3ccc(SC(F)(F)F)cc3)CC2)C1 (single isomer, unassigned) [69D*] | 10 to 50 µM | –
17 | C[C@H]1CCN(c2nnn[nH]2)C[C@H](NC(=O)C2(c3ccc(OC(F)F)cc3O)CC2)C1 (single isomer, unassigned) [70C*] | 10 to 50 µM | –
18 | Cc1ccc(C2(C(=O)N[C@H]3C[C@H](C)CCN(c4nnn[nH]4)C3)CC2)cc1 (single isomer, unassigned) [71B*] | 50 to 100 µM | –
19 | Cc1ccc(C2(C(=O)N[C@@H]3C[C@@H](C)CCN(c4nnn[nH]4)C3)CC2)cc1 (single isomer, unassigned) [71C*] | 50 to 100 µM | –
20 | Cc1ccc(C2(C(=O)N[C@H]3C[C@@H](C)CCN(c4nnn[nH]4)C3)CC2)cc1 (single isomer, unassigned) [71D*] | 10 to 50 µM | –
21 | C[C@@H]1CCN(c2nnn[nH]2)C[C@@H](NC(=O)C2(c3c(F)cc(Cl)cc3F)CC2)C1 (single isomer, unassigned) [72B*] | 1 to 10 µM | –
22 | C[C@H]1CCN(c2nnn[nH]2)C[C@H](NC(=O)C2(c3c(F)cc(Cl)cc3F)CC2)C1 (single isomer, unassigned) [72C*] | > 100 µM | –
23 | C[C@H]1CCN(c2nnn[nH]2)C[C@@H](NC(=O)C2(c3c(F)cc(Cl)cc3F)CC2)C1 (single isomer, unassigned) [72D*] | 10 to 50 µM | –
24 | C[C@@H]1CCN(c2nnn[nH]2)C[C@@H](NC(=O)C2(c3ccc(OC(F)F)c(F)c3)CC2)C1 (single isomer, unassigned) [73B*] | 1 to 10 µM | –
25 | C[C@H]1CCN(c2nnn[nH]2)C[C@H](NC(=O)C2(c3ccc(OC(F)F)c(F)c3)CC2)C1 (single isomer, unassigned) [73C*] | 10 to 50 µM | –
26 | C[C@H]1CCN(c2nnn[nH]2)C[C@@H](NC(=O)C2(c3ccc(OC(F)F)c(F)c3)CC2)C1 (single isomer, unassigned) [73D*] | 1 to 10 µM | –

Row | Compound | IC50 [1] | IC50 (SPA IC50, displacement of 3H-MCC950)
27 | Cc1ccc(C2(C(=O)N[C@H]3C[C@H](C)CCN(c4nnn[nH]4)C3)CC2)c(O)c1F (single isomer, unassigned) [74B*] | 1 to 10 µM | –
28 | Cc1ccc(C2(C(=O)N[C@@H]3C[C@@H](C)CCN(c4nnn[nH]4)C3)CC2)c(O)c1F (single isomer, unassigned) [74C*] | 10 to 50 µM | –
29 | Cc1ccc(C2(C(=O)N[C@H]3C[C@@H](C)CCN(c4nnn[nH]4)C3)CC2)c(O)c1F (single isomer, unassigned) [74D*] | 1 to 10 µM | –
30 | C[C@@H]1CC[C@@H](NC(=O)C2(c3ccc(Cl)cc3O)CC2)CN(c2nnn[nH]2)C1 (single isomer, unassigned) [90C*] | 10 to 50 µM | –
31 | C[C@@H]1CC[C@H](NC(=O)C2(c3ccc(Cl)cc3O)CC2)CN(c2nnn[nH]2)C1 (single isomer, unassigned) [90D*] | 1 to 10 µM | –
32 | C[C@H]1CC[C@@H](NC(=O)C2(c3ccc(C4CC4)cc3O)CC2)CN(c2nnn[nH]2)C1 (single isomer, unassigned) [91A*] | < 1 µM | –
33 | C[C@H]1CC[C@H](NC(=O)C2(c3ccc(C4CC4)cc3O)CC2)CN(c2nnn[nH]2)C1 (single isomer, unassigned) [91B*] | < 1 µM | –
34 | C[C@@H]1CC[C@@H](NC(=O)C2(c3ccc(C4CC4)cc3O)CC2)CN(c2nnn[nH]2)C1 (single isomer, unassigned) [91C*] | 50 to 100 µM | –
35 | C[C@@H]1CC[C@H](NC(=O)C2(c3ccc(C4CC4)cc3O)CC2)CN(c2nnn[nH]2)C1 (single isomer, unassigned) [91D*] | 1 to 10 µM | –
36 | O=C(NC1CCC[C@H]2CC[C@@H]1N2c1nnn[nH]1)C1(c2ccc(C3CC3)cc2O)CC1 (single isomer, unassigned) [93D*] | – | 1 to 10 µM
37 | C[C@@H]1CCN(c2nnn[nH]2)C[C@@H](NC(=O)C2(c3cnc(Cl)cc3O)CC2)C1 (single isomer, unassigned) [99B*] | 1 to 10 µM | –
38 | C[C@H]1CCN(c2nnn[nH]2)C[C@H](NC(=O)C2(c3cnc(Cl)cc3O)CC2)C1 (single isomer, unassigned) [99C*] | 50 to 100 µM | –
39 | C[C@H]1CCN(c2nnn[nH]2)C[C@@H](NC(=O)C2(c3cnc(Cl)cc3O)CC2)C1 (single isomer, unassigned) [99D*] | 10 to 50 µM | –
40 | C[C@@H]1CCN(c2nnn[nH]2)C[C@@H](NC(=O)C2(c3ccc(Cl)nc3O)CC2)C1 (single isomer, unassigned) [100B*] | 10 to 50 µM | –
41 | C[C@H]1CCN(c2nnn[nH]2)C[C@H](NC(=O)C2(c3ccc(Cl)nc3O)CC2)C1 (single isomer, unassigned) [100C*] | > 100 µM | –
42 | C[C@H]1CCN(c2nnn[nH]2)C[C@@H](NC(=O)C2(c3ccc(Cl)nc3O)CC2)C1 (single isomer, unassigned) [100D*] | > 100 µM | –
43 | COc1cc(F)c(C2(C(=O)N[C@H]3C[C@H](C)[C@H]4CC[C@@H]3N4c3nnn[nH]3)CC2)c(F)c1 (single isomer, unassigned) [102D*] | 10 to 50 µM | –
44 | O=C(N[C@H]1C[C@@H](C(F)(F)F)[C@@H]2CC[C@H]1N2c1nnn[nH]1)C1(c2ccc(Cl)cc2)CC1 (single isomer, unassigned) [103B*] | > 100 µM | –
45 | O=C(N[C@@H]1C[C@H](C(F)(F)F)[C@H]2CC[C@@H]1N2c1nnn[nH]1)C1(c2ccc(Cl)cc2)CC1 (single isomer, unassigned) [103C*] | > 100 µM | –
46 | O=C(N[C@H]1C[C@H](C(F)(F)F)[C@H]2CC[C@@H]1N2c1nnn[nH]1)C1(c2ccc(Cl)cc2)CC1 (single isomer, unassigned) [103D*] | 10 to 50 µM | –
47 | O=C(NC1CC(C2CC2)CN(c2nnn[nH]2)C1)C1(c2ccc(Cl)cc2)CC1 (single isomer, unassigned) [Rac-13A*/D*, 1-(4-chlorophenyl)-N-(5-cyclopropyl-1-(1H-tetrazol-5-yl)piperidin-3-yl)cyclopropane-1-carboxamide] | 1 to 10 µM | –
48 | O=C(NC1CC(C2CC2)CN(c2nnn[nH]2)C1)C1(c2ccc(Cl)cc2)CC1 (single isomer, unassigned) [Rac-13B*/C*, 1-(4-chlorophenyl)-N-(5-cyclopropyl-1-(1H-tetrazol-5-yl)piperidin-3-yl)cyclopropane-1-carboxamide] | 50 to 100 µM | –
49 | C[C@@H]1CCN(c2nnn[nH]2)CC(NC(=O)C2(c3ccc(OC(F)F)cc3)CC2)C1 (stereo in doubt) [58B*, 1-(4-(difluoromethoxy)phenyl)-N-((3S,5R)-5-methyl-1-(1H-tetrazol-5-yl)azepan-3-yl)cyclopropane-1-carboxamide] | 1 to 10 µM | –
50 | C[C@@H]1C[C@H](NC(=O)C2(c3ccc(OC(F)F)cc3F)CC2)[C@H]2CC[C@@H]1N2c1nnn[nH]1 (stereo in doubt) [101B*, 1-(4-(difluoromethoxy)-2-fluorophenyl)-N-(4-methyl-8-(1H-tetrazol-5-yl)-8-azabicyclo[3.2.1]octan-2-yl)cyclopropane-1-carboxamide] | > 100 µM | –
51 | C[C@H]1C[C@@H](NC(=O)C2(c3ccc(OC(F)F)cc3F)CC2)[C@@H]2CC[C@H]1N2c1nnn[nH]1 (stereo in doubt) [101C*, 1-(4-(difluoromethoxy)-2-fluorophenyl)-N-(4-methyl-8-(1H-tetrazol-5-yl)-8-azabicyclo[3.2.1]octan-2-yl)cyclopropane-1-carboxamide] | > 100 µM | –
52 | C[C@H]1C[C@H](NC(=O)C2(c3ccc(OC(F)F)cc3F)CC2)[C@@H]2CC[C@H]1N2c1nnn[nH]1 (stereo in doubt) [101D*, 1-(4-(difluoromethoxy)-2-fluorophenyl)-N-(4-methyl-8-(1H-tetrazol-5-yl)-8-azabicyclo[3.2.1]octan-2-yl)cyclopropane-1-carboxamide] | 10 to 50 µM | –
